Measurements taken from patent US8987268B2, “Pyrrolopyridazine JAK3 inhibitors and their use for the treatment of inflammatory and autoimmune diseases” (Bristol-Myers Squibb Company, priority 2011, dated 2015).
Counter-ions that a name gives are not always drawn. Like-named read-outs stand apart in the source and are kept apart here.

Legend:
GST-JAK1 enzyme = GST-JAK1 enzyme (Homo sapiens (Human), UniProt P23458); test: JAK1 Kinase Assay Protocol; assay type: biochemical; details: read-out: LLE_JAK1 (IC50)
Protocol: JAK1 Kinase Assay Protocol
(§1) The assay reactions were performed in U-bottom 384-well plates. […] The reaction was initiated by the combination of GST-JAK1 enzyme with substrates and test compounds. The reactions were incubated at room temperature for 3 hours and terminated by adding 60 μl of 35 mM EDTA to each sample. Each reaction mixture was analyzed on the Caliper LabChip 3000 (Caliper, Hopkinton, Mass.) by electrophoretic separation of the fluorescent substrate and phosphorylated product. […] Compounds were dissolved at 10 mM in dimethylsulfoxide (DMSO) and evaluated at eleven concentrations. IC50 values were derived by non-linear regression analysis.

GST-JAK3 enzyme = GST-JAK3 enzyme (Homo sapiens (Human), UniProt P52333); test: JAK3 Kinase Assay Protocol (Caliper); assay type: biochemical; details: JAK3 kinase inhibition; read-out: LLE_JAK3_FB (IC50)
Protocol: JAK3 Kinase Assay Protocol (Caliper)
as §1, with “GST-JAK3” for “GST-JAK1”

GST-JAK3 enzyme, sequence (P52333 whole entry): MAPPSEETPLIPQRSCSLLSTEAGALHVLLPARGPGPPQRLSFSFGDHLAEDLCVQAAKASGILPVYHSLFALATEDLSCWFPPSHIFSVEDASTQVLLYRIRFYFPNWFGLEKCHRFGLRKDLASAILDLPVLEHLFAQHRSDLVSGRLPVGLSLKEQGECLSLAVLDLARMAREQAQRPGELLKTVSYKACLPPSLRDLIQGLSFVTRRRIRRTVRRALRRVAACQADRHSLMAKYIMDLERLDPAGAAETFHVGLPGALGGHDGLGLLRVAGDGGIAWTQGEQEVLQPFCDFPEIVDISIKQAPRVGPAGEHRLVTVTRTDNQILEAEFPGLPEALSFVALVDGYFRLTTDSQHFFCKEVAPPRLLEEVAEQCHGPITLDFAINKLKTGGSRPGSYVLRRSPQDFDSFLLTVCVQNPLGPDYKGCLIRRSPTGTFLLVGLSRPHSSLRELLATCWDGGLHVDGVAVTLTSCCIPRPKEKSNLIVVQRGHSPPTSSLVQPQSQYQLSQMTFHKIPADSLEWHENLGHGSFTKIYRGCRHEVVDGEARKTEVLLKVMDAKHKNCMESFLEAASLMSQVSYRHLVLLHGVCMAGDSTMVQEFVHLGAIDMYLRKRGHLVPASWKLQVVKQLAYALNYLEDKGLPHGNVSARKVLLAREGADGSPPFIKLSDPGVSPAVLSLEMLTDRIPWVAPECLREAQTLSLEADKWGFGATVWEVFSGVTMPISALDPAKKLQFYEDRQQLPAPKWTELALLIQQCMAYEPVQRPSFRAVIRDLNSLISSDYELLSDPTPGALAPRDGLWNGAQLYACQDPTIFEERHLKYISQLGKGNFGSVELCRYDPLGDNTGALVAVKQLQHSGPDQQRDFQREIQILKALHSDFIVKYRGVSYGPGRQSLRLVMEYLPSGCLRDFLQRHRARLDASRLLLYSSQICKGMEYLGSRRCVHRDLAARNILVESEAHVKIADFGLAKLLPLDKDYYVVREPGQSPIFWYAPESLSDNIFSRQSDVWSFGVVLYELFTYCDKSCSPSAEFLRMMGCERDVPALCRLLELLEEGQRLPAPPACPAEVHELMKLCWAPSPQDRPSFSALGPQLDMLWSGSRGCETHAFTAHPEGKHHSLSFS
GST-JAK1 enzyme, sequence (P23458 whole entry): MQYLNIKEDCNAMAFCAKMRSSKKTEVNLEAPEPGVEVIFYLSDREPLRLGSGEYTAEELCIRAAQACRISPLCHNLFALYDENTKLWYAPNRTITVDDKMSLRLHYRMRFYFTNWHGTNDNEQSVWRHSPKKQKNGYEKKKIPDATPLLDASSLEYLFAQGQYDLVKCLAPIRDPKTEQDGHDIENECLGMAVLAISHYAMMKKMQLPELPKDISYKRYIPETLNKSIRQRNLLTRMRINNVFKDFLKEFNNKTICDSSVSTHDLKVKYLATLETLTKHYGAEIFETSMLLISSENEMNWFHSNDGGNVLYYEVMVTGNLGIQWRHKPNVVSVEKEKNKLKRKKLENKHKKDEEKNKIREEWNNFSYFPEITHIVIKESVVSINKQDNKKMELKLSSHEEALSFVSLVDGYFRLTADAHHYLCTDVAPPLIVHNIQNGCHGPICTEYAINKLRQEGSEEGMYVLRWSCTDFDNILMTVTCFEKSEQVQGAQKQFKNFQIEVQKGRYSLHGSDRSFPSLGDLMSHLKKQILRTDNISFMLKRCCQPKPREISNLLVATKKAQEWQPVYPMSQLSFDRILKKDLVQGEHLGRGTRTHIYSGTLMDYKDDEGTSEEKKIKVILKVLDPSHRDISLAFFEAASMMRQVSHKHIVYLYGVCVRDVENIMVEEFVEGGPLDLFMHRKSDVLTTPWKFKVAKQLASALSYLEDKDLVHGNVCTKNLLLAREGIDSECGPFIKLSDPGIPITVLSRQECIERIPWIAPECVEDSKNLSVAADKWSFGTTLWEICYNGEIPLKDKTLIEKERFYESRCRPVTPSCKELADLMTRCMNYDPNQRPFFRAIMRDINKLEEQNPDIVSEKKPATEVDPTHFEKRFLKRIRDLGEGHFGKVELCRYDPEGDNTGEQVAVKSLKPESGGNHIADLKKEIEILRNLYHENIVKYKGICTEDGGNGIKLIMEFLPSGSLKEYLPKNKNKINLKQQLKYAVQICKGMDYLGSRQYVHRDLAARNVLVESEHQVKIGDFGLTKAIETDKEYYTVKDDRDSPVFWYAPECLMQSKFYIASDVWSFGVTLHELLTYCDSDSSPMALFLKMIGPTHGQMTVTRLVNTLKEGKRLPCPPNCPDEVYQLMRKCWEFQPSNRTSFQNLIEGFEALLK

IC50 (GST-JAK1 enzyme; JAK1 kinase inhibition) [nM] | IC50 (GST-JAK3 enzyme) [nM] | SMILES | IC50 (GST-JAK1 enzyme) [nM]
6.2 |  | CS(=O)(=O)N1C[C@H](CF)[C@H](Nc2c(C(N)=O)cnn3cc(-c4ccc(C(F)(F)F)nc4)cc23)C1 (racemic) [Example 275, (+/−)-Cis-4-((-4-(fluoromethyl)-1-(methylsulfonyl)pyrrolidin-3-yl)amino)-6-(6-(trifluoromethyl)pyridin-3-yl)pyrrolo[1,2-b]pyridazine-3-carboxamide] | 
120 | 70 | NC(=O)c1cnn2cc(-c3cncc(F)c3)cc2c1NC1CCOCC1 [Example 29, 6-(5-fluoro-3-pyridinyl)-4-(tetrahydro-2H-pyran-4-ylamino)pyrrolo[1,2-b]pyridazine-3-carboxamide] | 
813 | 148 | NC(=O)c1cnn2cc(-c3cncnc3)cc2c1NC1CCOCC1 [Example 32, 6-(5-pyrimidinyl)-4-(tetrahydro-2H-pyran-4-ylamino)pyrrolo[1,2-b]pyridazine-3-carboxamide] | 
58 | 20.9 | CS(=O)(=O)N1CCC[C@H](Nc2c(C(N)=O)cnn3cc(-c4ccccc4)cc23)C1 [Example 46, 4-(((3S)-1-(methylsulfonyl)-3-piperidinyl)amino)-6-phenylpyrrolo[1,2-b]pyridazine-3-carboxamide] | 
53.4 | 57.1 | NC(=O)c1cnn2cc(-c3ccccc3)cc2c1N[C@@H]1CCCNC1 [Example 48, (R)-6-phenyl-4-(piperidin-3-ylamino)pyrrolo[1,2-b]pyridazine-3-carboxamide, HCl] | 
903 | 285 | CCOC(=O)N1CCC[C@@H](Nc2c(C(N)=O)cnn3cc(-c4ccccc4)cc23)C1 [Example 51, ethyl (3R)-3-((3-carbamoyl-6-phenylpyrrolo[1,2-b]pyridazin-4-yl)amino)-1-piperidinecarboxylate] | 
 | 3.3 | COc1ccc(-c2cc3c(N[C@@H]4CCN(C(=O)[C@@H](C)O)CC4(C)C)c(C(N)=O)cnn3c2)cn1 [Example 56] | 
3.6 | 1 | C[C@@H]1[C@H]2CN(C(=O)C(C)(C)O)C[C@H]2C[C@H]1Nc1c(C(N)=O)cnn2cc(-c3cnc(N)nc3)cc12 [Example 62, 6-(2-amino-5-pyrimidinyl)-4-(((3aS,4R,5R,6aS)-2-(2-hydroxy-2-methylpropanoyl)-4-methyloctahydrocyclopenta[c]pyrrol-5-yl)amino)pyrrolo[1,2-b]pyridazine-3-carboxamide] | 
0.4 | 0.7 | CNC(=O)c1ccc(-c2cc3c(N[C@@H]4C[C@@H]5CN(C(=O)C(C)(C)O)C[C@@H]5[C@H]4C)c(C(N)=O)cnn3c2)cn1 [Example 63, 4-(((3aS,4R,5R,6aS)-2-(2-hydroxy-2-methylpropanoyl)-4-methyloctahydrocyclopenta[c]pyrrol-5-yl)amino)-6-(6-(methylcarbamoyl)-3-pyridinyl)pyrrolo[1,2-b]pyridazine-3-carboxamide] | 
1.3 | 0.4 | C[C@@H]1[C@H]2CN(S(C)(=O)=O)C[C@H]2C[C@H]1Nc1c(C(N)=O)cnn2cc(-c3nnn(C)n3)cc12 [Example 67, 4-(((3aS,4R,5R,6aS)-4-methyl-2-(methylsulfonyl)octahydrocyclopenta[c]pyrrol-5-yl)amino)-6-(2-methyl-2H-tetrazol-5-yl)pyrrolo[1,2-b]pyridazine-3-carboxamide] | 
1.4 | 1.5 | C[C@@H]1[C@H]2CN(C(=O)C(C)(C)O)C[C@H]2C[C@H]1Nc1c(C(N)=O)cnn2cc(-c3cnn(C)c3)cc12 [Example 83, 4-((3aS,4R,5R,6aS)-2-(2-hydroxy-2-methylpropanoyl)-4-methyloctahydrocyclopenta[c]pyrrol-5-ylamino)-6-(1-methyl-1H-pyrazol-4-yl)pyrrolo[1,2-b]pyridazine-3-carboxamide] | 

The remaining lines, values behind:

SMILES | IC50 (GST-JAK1 enzyme; JAK1 kinase inhibition) [nM] | IC50 (GST-JAK3 enzyme) [nM] | IC50 (GST-JAK1 enzyme) [nM]
NC(=O)c1cnn2cc(-c3ccc(F)cc3)cc2c1NC1CCOCC1 [Example 28, 6-(4-fluorophenyl)-4-(tetrahydro-2H-pyran-4-ylamino)pyrrolo[1,2-b]pyridazine-3-carboxamide] | 21.6 | 7.6 | 
Cn1nccc1-c1cc2c(NC3CCOCC3)c(C(N)=O)cnn2c1 [Example 30, 6-(1-methyl-1H-pyrazol-5-yl)-4-(tetrahydro-2H-pyran-4-ylamino)pyrrolo[1,2-b]pyridazine-3-carboxamide] | 190 | 110 | 
NC(=O)c1cnn2cc(-c3cccnc3)cc2c1NC1CCOCC1 [Example 31, 6-(3-pyridinyl)-4-(tetrahydro-2H-pyran-4-ylamino)pyrrolo[1,2-b]pyridazine-3-carboxamide] | 120 | 70 | 
N#Cc1ccccc1-c1cc2c(NC3CCOCC3)c(C(N)=O)cnn2c1 [Example 33, 6-(2-cyanophenyl)-4-(tetrahydro-2H-pyran-4-ylamino)pyrrolo[1,2-b]pyridazine-3-carboxamide] | 110 | 40 | 
NC(=O)c1cnn2cc(-c3ccccc3F)cc2c1NC1CCOCC1 [Example 34, 6-(2-fluorophenyl)-4-(tetrahydro-2H-pyran-4-ylamino)pyrrolo[1,2-b]pyridazine-3-carboxamide] | 80 | 40 | 
NC(=O)c1cnn2cc(-c3cnc4ccccc4c3)cc2c1NC1CCOCC1 [Example 35, 6-(3-quinolinyl)-4-(tetrahydro-2H-pyran-4-ylamino)pyrrolo[1,2-b]pyridazine-3-carboxamide] | 40 | 40 | 
CC1(F)COCC1Nc1c(C(N)=O)cnn2cc(N3CCCC3=O)cc12 (stereo not shown) [Example 40, 4-(4-fluoro-4-methyltetrahydrofuran-3-ylamino)-6-(2-oxopyrrolidin-1-yl)pyrrolo[1,2-b]pyridazine-3-carboxamide] | 40.3 | 15.1 | 
COc1ccc(-c2cc3c(N[C@@H]4CCN(C(=O)C(N)=O)CC4(C)C)c(C(N)=O)cnn3c2)cn1 [Example 55, (R)-4-(1-(2-amino-2-oxoacetyl)-3,3-dimethylpiperidin-4-ylamino)-6-(6-methoxypyridin-3-yl)pyrrolo[1,2-b]pyridazine-3-carboxamide] | 4.4 | 0.9 | 
C[C@@H]1[C@H]2CN(S(C)(=O)=O)C[C@H]2C[C@H]1Nc1c(C(N)=O)cnn2cc(-c3cnc(N)nc3)cc12 [Example 59, 6-(2-amino-5-pyrimidinyl)-4-(((3aS,4R,5R,6aS)-4-methyl-2-(methylsulfonyl)octahydrocyclopenta[c]pyrrol-5-yl)amino)pyrrolo[1,2-b]pyridazine-3-carboxamide] | 0.2 | 0.6 | 
CC(=O)N1CCN(c2cc3c(N[C@@H]4C[C@@H]5CN(S(C)(=O)=O)C[C@@H]5[C@H]4C)c(C(N)=O)cnn3c2)C1=O [Example 60, 6-(3-acetyl-2-oxo-1-imidazolidinyl)-4-(((3aS,4R,5R,6aS)-4-methyl-2-(methylsulfonyl)octahydrocyclopenta[c]pyrrol-5-yl)amino)pyrrolo[1,2-b]pyridazine-3-carboxamide] | 0.8 | 1.8 | 
C[C@@H]1[C@H]2CN(C(=O)CO)C[C@H]2C[C@H]1Nc1c(C(N)=O)cnn2cc(-c3ccc(C(N)=O)cc3)cc12 [Example 61, 6-(4-carbamoylphenyl)-4-(((3aS,4R,5R,6aS)-2-glycoloyl-4-methyloctahydrocyclopenta[c]pyrrol-5-yl)amino)pyrrolo[1,2-b]pyridazine-3-carboxamide] | 0.3 | 0.4 | 
C[C@@H]1[C@H]2CN(C(=O)CF)C[C@H]2C[C@H]1Nc1c(C(N)=O)cnn2cc(-c3cnc(N)c(F)c3)cc12 [Example 69, 6-(6-amino-5-fluoropyridin-3-yl)-4-((3aS,4R,5R,6aS)-2-(2-fluoroacetyl)-4-methyloctahydrocyclopenta[c]pyrrol-5-ylamino)pyrrolo[1,2-b]pyridazine-3-carboxamide] |  | 1.5 | 1.2
C[C@@H]1[C@H]2CN(C(=O)CO)C[C@H]2C[C@H]1Nc1c(C(N)=O)cnn2cc(-c3ccc(C(=O)NC4CC4)cc3)cc12 [Example 70, 6-(4-(cyclopropylcarbamoyl)phenyl)-4-((3aS,4R,5R,6aS)-2-(2-hydroxyacetyl)-4-methyloctahydrocyclopenta[c]pyrrol-5-ylamino)pyrrolo[1,2-b]pyridazine-3-carboxamide] | 0.3 | 0.4 | 
CC(=O)N1C[C@H]2C[C@@H](Nc3c(C(N)=O)cnn4cc(-c5cnn(C)c5)cc34)[C@H](C)[C@H]2C1 [Example 93, 4-((3aS,4R,5R,6aS)-2-acetyl-4-methyloctahydrocyclopenta[c]pyrrol-5-ylamino)-6-(1-methyl-1H-pyrazol-4-yl)pyrrolo[1,2-b]pyridazine-3-carboxamide] |  | 0.4 | 
CCC(=O)N1C[C@H]2C[C@@H](Nc3c(C(N)=O)cnn4cc(-c5ccc(F)nc5)cc34)[C@H](C)[C@H]2C1 [Example 97, 6-(6-fluoropyridin-3-yl)-4-((3aS,4R,5R,6aS)-4-methyl-2-propionyloctahydrocyclopenta[c]pyrrol-5-ylamino)pyrrolo[1,2-b]pyridazine-3-carboxamide] | 3.1 | 1.4 | 
